A short description of experiment [1]: NIH-3T3 fibroblast cytotoxicity, dose response, cytotoxicity control, cell-based, fluorescence, Alamar Blue, secondary assay (AID 2327).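 Note: NIH-3T3 mouse fibroblasts cultured with fluconazole at 8 µg/mL.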 The experiment is classed as functional.
Experiment [2] in a line: fluconazole-exposed Candida albicans growth modulators – fluorescence, retest, confirmation (AID 2467). Type of experiment: functional, cell-based.
In experiment [3] the target is T1, Caspase-3 (Homo sapiens, UniProt P42574).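 Note: Dose-response selectivity test against caspase-3 for candidate inhibitors of sentrin-specific proteases (SENPs).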
T1 sequence (P42574 whole entry): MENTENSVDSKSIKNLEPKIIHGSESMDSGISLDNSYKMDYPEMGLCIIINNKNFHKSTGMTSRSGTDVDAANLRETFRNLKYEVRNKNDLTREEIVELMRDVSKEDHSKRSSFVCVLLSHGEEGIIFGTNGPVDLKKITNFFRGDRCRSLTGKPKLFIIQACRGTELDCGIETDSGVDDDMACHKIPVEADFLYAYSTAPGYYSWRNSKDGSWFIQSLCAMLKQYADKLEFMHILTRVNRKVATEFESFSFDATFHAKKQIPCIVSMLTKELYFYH
The experiment is classed as functional.

In experiment [4] the target is T2, Sentrin-specific protease 7 (Homo sapiens, UniProt Q9BQF6).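 Note: Luminescence-based dose-response confirmation of ultra-high-throughput screening hits, measuring inhibition of SENP7.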
T2 sequence (Q9BQF6 whole entry): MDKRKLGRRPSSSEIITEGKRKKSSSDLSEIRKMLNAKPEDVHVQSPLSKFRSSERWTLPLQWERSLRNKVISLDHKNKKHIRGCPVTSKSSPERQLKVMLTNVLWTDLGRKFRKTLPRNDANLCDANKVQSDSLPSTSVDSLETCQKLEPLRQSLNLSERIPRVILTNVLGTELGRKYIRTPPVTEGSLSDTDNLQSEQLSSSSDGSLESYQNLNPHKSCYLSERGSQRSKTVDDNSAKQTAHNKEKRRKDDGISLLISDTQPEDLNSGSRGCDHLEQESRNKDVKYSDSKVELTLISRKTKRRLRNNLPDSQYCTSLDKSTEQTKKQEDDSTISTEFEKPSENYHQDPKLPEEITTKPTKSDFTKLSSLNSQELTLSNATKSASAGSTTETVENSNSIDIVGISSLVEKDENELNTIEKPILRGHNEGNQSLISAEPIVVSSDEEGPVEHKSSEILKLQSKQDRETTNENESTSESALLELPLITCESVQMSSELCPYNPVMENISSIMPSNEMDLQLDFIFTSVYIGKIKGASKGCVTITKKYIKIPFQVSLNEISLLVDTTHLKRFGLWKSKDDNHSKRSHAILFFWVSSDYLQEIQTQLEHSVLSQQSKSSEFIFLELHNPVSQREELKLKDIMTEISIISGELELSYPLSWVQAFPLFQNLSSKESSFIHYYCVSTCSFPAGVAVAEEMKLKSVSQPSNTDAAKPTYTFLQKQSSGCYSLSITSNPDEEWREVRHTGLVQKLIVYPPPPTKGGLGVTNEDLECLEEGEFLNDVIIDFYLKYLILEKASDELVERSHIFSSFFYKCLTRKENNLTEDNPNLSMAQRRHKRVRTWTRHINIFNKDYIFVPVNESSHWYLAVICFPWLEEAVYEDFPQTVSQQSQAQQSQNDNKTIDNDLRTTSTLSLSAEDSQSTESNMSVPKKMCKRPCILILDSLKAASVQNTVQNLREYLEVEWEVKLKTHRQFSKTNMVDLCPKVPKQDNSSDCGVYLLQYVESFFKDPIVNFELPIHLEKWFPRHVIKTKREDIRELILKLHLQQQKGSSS
Type of experiment: functional.

Experiment [5] concerns the target T3, Sentrin-specific protease 6 (Homo sapiens, UniProt Q9GZR1).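 Note: Luminescence-based dose-response confirmatory assay of SENP6 inhibition, following up an ultra-high-throughput screen.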
T3 sequence (Q9GZR1 whole entry): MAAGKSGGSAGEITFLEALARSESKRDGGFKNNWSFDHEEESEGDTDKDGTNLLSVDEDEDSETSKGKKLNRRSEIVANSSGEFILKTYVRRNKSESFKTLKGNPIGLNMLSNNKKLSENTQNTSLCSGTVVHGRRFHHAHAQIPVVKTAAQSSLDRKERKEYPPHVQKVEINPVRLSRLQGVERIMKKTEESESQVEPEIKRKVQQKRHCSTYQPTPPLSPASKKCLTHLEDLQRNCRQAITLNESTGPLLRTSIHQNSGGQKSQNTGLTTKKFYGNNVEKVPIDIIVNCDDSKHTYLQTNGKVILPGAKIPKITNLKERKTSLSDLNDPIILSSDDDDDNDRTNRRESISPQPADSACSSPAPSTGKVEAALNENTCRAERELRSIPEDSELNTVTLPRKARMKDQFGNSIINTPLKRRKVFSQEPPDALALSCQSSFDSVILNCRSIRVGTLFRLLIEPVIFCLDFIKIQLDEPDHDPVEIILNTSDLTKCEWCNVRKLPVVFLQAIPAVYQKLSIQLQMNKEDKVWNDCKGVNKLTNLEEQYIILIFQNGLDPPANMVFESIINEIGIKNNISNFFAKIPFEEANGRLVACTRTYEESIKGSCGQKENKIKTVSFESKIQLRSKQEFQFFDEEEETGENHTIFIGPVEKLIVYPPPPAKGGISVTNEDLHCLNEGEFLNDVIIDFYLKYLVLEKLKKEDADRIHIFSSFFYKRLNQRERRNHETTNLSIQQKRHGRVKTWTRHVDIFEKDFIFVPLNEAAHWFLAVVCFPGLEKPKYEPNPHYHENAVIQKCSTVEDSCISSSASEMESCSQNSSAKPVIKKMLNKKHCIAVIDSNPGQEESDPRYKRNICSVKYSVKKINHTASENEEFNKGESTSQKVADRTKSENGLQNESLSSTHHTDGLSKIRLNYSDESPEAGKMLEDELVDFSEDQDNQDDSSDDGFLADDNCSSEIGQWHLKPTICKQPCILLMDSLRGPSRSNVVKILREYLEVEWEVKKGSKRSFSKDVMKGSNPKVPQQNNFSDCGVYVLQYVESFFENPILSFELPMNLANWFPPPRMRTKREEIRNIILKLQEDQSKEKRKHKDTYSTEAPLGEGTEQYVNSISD
Type of experiment: functional.

For experiment [6], the target named is T4, Sentrin-specific protease 8 (Homo sapiens, UniProt Q96LD8).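 Note: luminescence read-out of SENP8 inhibition, dose-response confirmation following an ultra-high-throughput screen.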
T4 sequence (Q96LD8 whole entry): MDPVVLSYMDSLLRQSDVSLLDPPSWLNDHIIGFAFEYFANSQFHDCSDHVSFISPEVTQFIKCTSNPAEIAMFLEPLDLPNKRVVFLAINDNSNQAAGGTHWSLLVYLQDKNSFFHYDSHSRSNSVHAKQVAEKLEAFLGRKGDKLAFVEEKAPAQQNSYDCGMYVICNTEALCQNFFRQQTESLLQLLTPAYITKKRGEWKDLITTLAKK
The experiment is classed as functional.

Experiment [7] has as its system HEK293. Nature of the experiment: EBV LMP1 TES2 canonical NF-kB signalling blockers – cell-based, HEK293, luciferase, cherry-pick, dose response (AID 588343). The experiment is classed as functional. Particulars: Homo sapiens.
Experiment [8] addresses T5, Heat shock factor protein 1 (Mus musculus, UniProt P38532).
T5 sequence (P38532 whole entry): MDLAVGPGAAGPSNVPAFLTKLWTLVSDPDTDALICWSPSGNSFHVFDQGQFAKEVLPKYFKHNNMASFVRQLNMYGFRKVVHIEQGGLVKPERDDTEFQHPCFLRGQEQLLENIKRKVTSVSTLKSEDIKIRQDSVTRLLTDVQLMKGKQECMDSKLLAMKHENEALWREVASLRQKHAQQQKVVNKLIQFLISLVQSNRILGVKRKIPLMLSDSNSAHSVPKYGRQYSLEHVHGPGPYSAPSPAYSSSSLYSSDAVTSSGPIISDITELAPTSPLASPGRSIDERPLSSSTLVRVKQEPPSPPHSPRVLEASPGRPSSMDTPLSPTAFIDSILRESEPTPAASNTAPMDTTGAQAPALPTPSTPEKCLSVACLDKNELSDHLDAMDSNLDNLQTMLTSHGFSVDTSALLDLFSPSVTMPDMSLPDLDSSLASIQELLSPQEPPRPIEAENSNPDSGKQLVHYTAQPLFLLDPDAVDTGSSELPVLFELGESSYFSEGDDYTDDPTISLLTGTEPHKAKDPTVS
Kind of experiment: enhancement of HSF1-driven luciferase signal – cell-based, NIH3T3, luminescence, dose retest, confirmation (AID 435004).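 Note: stress induced by proteasome inhibitor MG132 added 30 min after compound; luciferase reporter driven by HSF1 response element in NIH3T3 cells; actives raise luminescence as potentiators of the MG132 stress response.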 Type of experiment: functional.

Experiment [9] addresses T6, DNA repair and recombination protein RAD54-like (Homo sapiens, UniProt Q92698).
T6 sequence (Q92698 whole entry): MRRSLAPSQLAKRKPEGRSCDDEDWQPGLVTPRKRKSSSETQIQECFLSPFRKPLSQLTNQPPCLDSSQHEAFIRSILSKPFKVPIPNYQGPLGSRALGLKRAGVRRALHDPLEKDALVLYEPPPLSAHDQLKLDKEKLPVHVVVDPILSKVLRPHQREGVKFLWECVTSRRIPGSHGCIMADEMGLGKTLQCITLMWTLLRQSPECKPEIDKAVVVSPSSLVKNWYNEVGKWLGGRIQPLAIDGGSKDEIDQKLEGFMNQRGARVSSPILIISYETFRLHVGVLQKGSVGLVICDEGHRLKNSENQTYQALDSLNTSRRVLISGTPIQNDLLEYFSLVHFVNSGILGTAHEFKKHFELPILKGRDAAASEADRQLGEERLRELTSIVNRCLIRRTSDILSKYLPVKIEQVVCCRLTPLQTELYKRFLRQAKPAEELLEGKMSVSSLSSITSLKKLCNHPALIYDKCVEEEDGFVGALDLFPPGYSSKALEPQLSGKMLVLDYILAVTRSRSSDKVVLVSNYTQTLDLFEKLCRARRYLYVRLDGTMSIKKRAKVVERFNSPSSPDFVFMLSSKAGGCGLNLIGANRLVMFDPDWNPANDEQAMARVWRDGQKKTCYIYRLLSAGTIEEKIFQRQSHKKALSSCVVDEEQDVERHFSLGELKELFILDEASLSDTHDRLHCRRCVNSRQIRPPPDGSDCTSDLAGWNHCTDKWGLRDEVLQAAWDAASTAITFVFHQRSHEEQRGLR
Nature of the experiment: RAD54 Holliday junction migration blockers – biochemical, fluorescence, cherry-picked samples, dose series, confirmation (AID 651657). Type of experiment: functional.

Experiment [10] addresses T7, Apoptotic protease-activating factor 1 (Homo sapiens, UniProt O14727).
T7 sequence (O14727 whole entry): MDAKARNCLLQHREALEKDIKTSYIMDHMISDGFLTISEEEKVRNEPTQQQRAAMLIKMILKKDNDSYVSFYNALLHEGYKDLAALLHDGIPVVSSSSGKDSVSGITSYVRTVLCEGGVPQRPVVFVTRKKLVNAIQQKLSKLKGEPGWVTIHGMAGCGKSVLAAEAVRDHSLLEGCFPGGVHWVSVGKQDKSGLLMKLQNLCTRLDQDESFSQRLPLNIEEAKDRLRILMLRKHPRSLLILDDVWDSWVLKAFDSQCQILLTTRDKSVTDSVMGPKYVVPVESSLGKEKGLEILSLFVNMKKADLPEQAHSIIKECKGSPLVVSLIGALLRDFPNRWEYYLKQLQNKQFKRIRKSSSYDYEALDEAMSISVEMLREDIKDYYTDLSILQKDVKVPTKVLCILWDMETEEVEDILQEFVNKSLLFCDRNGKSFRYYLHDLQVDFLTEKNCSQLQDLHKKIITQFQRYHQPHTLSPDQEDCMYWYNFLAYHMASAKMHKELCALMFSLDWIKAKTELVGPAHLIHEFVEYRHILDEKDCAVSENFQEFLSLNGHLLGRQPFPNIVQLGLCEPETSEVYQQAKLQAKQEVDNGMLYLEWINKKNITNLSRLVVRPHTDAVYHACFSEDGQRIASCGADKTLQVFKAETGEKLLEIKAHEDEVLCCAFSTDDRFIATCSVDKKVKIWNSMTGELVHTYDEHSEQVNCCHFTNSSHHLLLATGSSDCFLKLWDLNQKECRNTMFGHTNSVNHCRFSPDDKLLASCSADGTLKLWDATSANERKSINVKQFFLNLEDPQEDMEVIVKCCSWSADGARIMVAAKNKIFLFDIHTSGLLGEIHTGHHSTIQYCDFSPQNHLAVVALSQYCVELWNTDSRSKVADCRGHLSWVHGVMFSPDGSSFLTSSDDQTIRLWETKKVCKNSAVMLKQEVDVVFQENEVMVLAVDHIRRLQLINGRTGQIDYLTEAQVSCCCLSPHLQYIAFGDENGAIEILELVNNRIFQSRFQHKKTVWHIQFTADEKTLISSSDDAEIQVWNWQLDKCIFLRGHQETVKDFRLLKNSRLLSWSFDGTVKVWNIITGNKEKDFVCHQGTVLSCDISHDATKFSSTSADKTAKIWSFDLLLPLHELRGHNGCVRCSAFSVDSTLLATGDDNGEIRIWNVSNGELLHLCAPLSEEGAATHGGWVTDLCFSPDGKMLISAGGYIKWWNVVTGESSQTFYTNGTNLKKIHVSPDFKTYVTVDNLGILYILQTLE
The experiment is classed as functional.

Experiment [11] has as its system Escherichia coli. Kind of experiment: microbe, parasite or virus in culture.

Structures are written as SMILES. Activity calls are given as the source filed them. A value given as a limit tells only on which side of the number the result lay.

Regarding `CCCCCc1ccc(-c2ccc(/C=C/C(=O)O)cc2)nc1`, the figures for the EC50 in experiment [1] and in [2] were > 160 µM (inconclusive) and 2.03 µM (active), respectively. Also, the IC50 is 35.4 µM (active) in experiment [3], 6.37 µM (active) in experiment [4], 11.2 µM (active) in experiment [5] and 8.8 µM (active) in [6]. For the same molecule, the AC50 in [7] was 20.8 µM (active).
`CC(Cc1ccccc1)NCC(=O)Nc1cc(N(C)C)nc2ccccc12` (stereo unspecified): in experiment [8], the EC50 was > 260 µM (inactive). The AC50 in experiment [9] was 42.1 µM (active).
Turning to `Clc1ccccc1-c1nn2c(-c3ccncc3)nnc2s1`, the IC50 in experiment [10] is 19.1 µM (active). Also, the AC50 in experiment [11] is 23.3 µM (active).
